The NIST ThermoML archive (doi:10.1016/j.fluid.2014.03.001)
± gives the expanded uncertainty stated by the source.

Details: Crystal 1; DTA

Normal melting temperature [°C]	SMILES
-18.8 ± 0.7	CCCCCCCC/C=C\CCCCCCCC(=O)OCC [ethyl (Z)-9-octadeceneoate]
34.7 ± 0.7	CCCCCCCCCCCCCCCCCC(=O)OCC [ethyl octadecanoate]
14.2 ± 0.5	CCCCCCCCCCCCCC(=O)OCC [ethyl tetradecanoate]
